Experimental findings from US20090175866A1, “TREATMENT OF B-CELL MALIGNANCIES” (priority 2004, published 2009) are described below.

Common to all, as to assay type: cell-based, human
The subject of one assay is H929 cells. Nature of the assay: Viability of H929 myeloma cells (MTT). Particulars: 100 nM. The text has this: (§1) FIG. 2 is a graph showing the viability of human myeloma cell lines in the presence of PRO-001. Viability is reported as the ratio between the optical density (OD) in the presence of FGF±inhibitor and the OD in the absence of FGF.
(§2) Non-transformed rat chondrocyte cell line expressing PGFR3 in an inducible manner (RCJ-FGFR3) has been described previously (Rauchenberger R. et al. J. Biol. Chem. 2003; 278:38194-205). Cells were maintained in α-Minimum Essential Media supplemented with 15% fetal calf serum (FCS), 2 mM L-Glutamine, 100 U/ml penicillin, 100 μg/ml streptomycin, 600 μg/ml G418 (Gibco BRL, Ontario, Canada), 2 μg/ml Tetracyclin (Sigma, Ontario, Canada), and 50 μg/ml HygromycinB (Gibco BRL). […]
(§3) Cell viability was assessed by 3-(4,5-dimethylthiazol)-2,5-diphenyl tetrazolium (MTT) or (2,3-bis(2-methoxy-4-nitro-5-sulphophenyl)-5-[(phenylamino) carbonyl]-2H-tetrazolium hydroxide (XTT) dye absorbance where indicated. Cells were seeded in 96-well plates at a density of 20,000 (FDCP-1 cells), 5,000 (B9 cells) or 25,000 cells (MM cell lines) per well in culture medium. Cells were incubated in the absence or presence of one of the following cytokines: 10 ng/ml FGF9 and 5 μg/ml heparin, 1% murine IL-6, 50 ng/ml IGF-1 or 50 ng/ml human IL-6 where indicated and increasing concentrations of PRO-001, control antibody (purified human Fab) or 100 nM PD173074. […]

The subject of another assay is UTMC2 cells. Nature of the assay: Viability of stimulated UTMC2 myeloma cells (MTT). Particulars: 100 nM; MTT. The protocol:
as §1
FIG. 4 is a graph showing viability of UTMC2 cells treated with FGF, IL6 or IGF-1. The dark bars represent stimulated cells treated with a control antibody; the dotted bar represents stimulated cells treated with 5 μg/ml PRO-001; the square-filled bar represents stimulated cells treated with 100 nM PD173074.
Non-transformed rat chondrocyte cell line expressing PGFR3 in an inducible manner (RCJ-FGFR3) has been described previously (Rauchenberger R. et al. J. Biol. Chem. 2003; 278:38194-205). […]
as §3

In the next assay the test system is 8226 cells. Nature of the assay: Viability of 8226 myeloma cells (MTT). Particulars: 100 nM, cells lack FGFR3 expression.
Source text: as §1, §2, §3

With `CCN(CC)CCCCNc1ncc2cc(-c3cc(OC)cc(OC)c3)c(NC(=O)NC(C)(C)C)nc2n1` [PD173074, reference compound], the “Cell growth of H929 cells in the presence of FGF” value in the assay on H929 cells was “resistant”. In the assay with UTMC2 cells, the “Inhibition of FGF-stimulated growth of UTMC2” value is recorded as “Inhibition of FGF-stimulated growth of UTMC2 by PRO-001 was comparable to that induced by PD173074”. Besides, the “Cell growth of 8226 cells in the presence of FGF” value with 8226 cells is “resistant”.
